Assays:
bedstraw = test: Test B pre/postemergence bedstraw; assay type: in vivo, Galium aparine; conditions: Postemergence
How it was run: (§1)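 Test chemicals in a non-phytotoxic solvent mixture with surfactant were sprayed preemergence onto planted seeds and postemergence onto plants 2 to 18 cm tall (1- to 4-leaf stage). After twelve to sixteen days in a greenhouse, injury was visually rated against untreated controls from 0 (no effect) to 10 (complete control).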

blackgrass = test: Test B pre/postemergence blackgrass; assay type: in vivo, Alopecurus myosuroides
How it was run: as §1

surinam grass = test: Test B pre/postemergence surinam grass; assay type: in vivo, Brachiaria decumbens
How it was run: as §1

cocklebur = test: Test B pre/postemergence cocklebur; assay type: in vivo, Xanthium strumarium
How it was run: as §1

corn = test: Test B pre/postemergence corn; assay type: in vivo, Zea mays
How it was run: as §1

crabgrass = test: Test B pre/postemergence crabgrass; assay type: in vivo, Digitaria sanguinalis
How it was run: as §1

giant foxtail = test: Test B pre/postemergence giant foxtail; assay type: in vivo, Setaria faberii
How it was run: as §1

morningglory = test: Test B pre/postemergence morningglory; assay type: in vivo, Ipomoea hederacea
How it was run: as §1

pigweed = test: Test B pre/postemergence pigweed; assay type: in vivo, Amaranthus retroflexus
How it was run: as §1

soybean = test: Test B pre/postemergence soybean; assay type: in vivo, Glycine max
How it was run: as §1

sugar beet = test: Test B pre/postemergence sugar beet; assay type: in vivo, Beta vulgaris
How it was run: as §1

wild oat = test: Test B pre/postemergence wild oat; assay type: in vivo, Avena fatua
How it was run: as §1

purple nutsedge = test: Test B pre/postemergence purple nutsedge; assay type: in vivo, Cyperus rotundus
How it was run: as §1

rice = test: Test B flood test rice; assay type: in vivo, Oryza sativa
How it was run: (§2)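 Plants were grown to the 2-leaf stage before treatment with test chemical, then held in a greenhouse for twelve to sixteen days. Injury was visually rated against untreated controls on a 0–10 scale, where 0 is no effect and 10 is complete control.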

smallflower flatsedge = test: Test B flood test smallflower flatsedge; assay type: in vivo, Cyperus difformis
How it was run: as §2

duck salad = test: Test B flood test duck salad; assay type: in vivo, Heteranthera limosa
How it was run: as §2

[1] = Rate 62 g/ha, scale of 0 to 10 where 0 is no effect and 10 is complete control
[2] = Rate 125 g/ha, scale 0 to 10, 0 is no effect, 10 is complete control
[3] = Postemergence, Rate 250 g/ha, scale 0 to 10
[4] = Postemergence, Rate 500 g/ha, scale of 0 to 10 where 0 is no effect and 10 is complete control
[5] = Preemergence, Rate 62 g/ha, scale 0 to 10 (0 no effect, 10 complete control)
[6] = Preemergence, Rate 125 g/ha, scale of 0 to 10 where 0 is no effect and 10 is complete control
[7] = Preemergence, Rate 250 g/ha, scale of 0 to 10 where 0 is no effect and 10 is complete control
[8] = Preemergence, Rate 500 g/ha, scale 0 to 10, 0 is no effect, 10 is complete control
[9] = Rate 62 g/ha, Postemergence, scale of 0 to 10 where 0 is no effect and 10 is complete control
[10] = Rate 125 g/ha, Postemergence, scale 0 to 10, 0 is no effect, 10 is complete control
[11] = Postemergence, Rate 250 g/ha, scale 0 to 10, 0 no effect, 10 complete control
[12] = Preemergence, Rate 250 g/ha, scale 0 to 10, 0 is no effect, 10 is complete control
[13] = Postemergence block (flood test species), Rate 250 g/ha, scale 0 to 10
[14] = Postemergence section (flood test species), Rate 500 g/ha, scale of 0 to 10 where 0 is no effect and 10 is complete control
[15] = Rate 125 g/ha, Postemergence section (flood test species), scale 0 to 10, 0 is no effect, 10 is complete control
[16] = Rate 62 g/ha, Postemergence (flood test species), scale of 0 to 10 where 0 is no effect and 10 is complete control

CC(C)N(C(=O)n1oc(=O)n(C[Si](C)(C)c2ccccc2)c1=O)c1ccc(Cl)cc1 [Compound 424]
Bedstraw plant response rating (bedstraw; Rate 250 g/ha, scale 0 to 10): 0
Bedstraw plant response rating (bedstraw; Rate 500 g/ha, scale of 0 to 10 where 0 is no effect and 10 is complete control): 0
Bedstraw plant response rating (bedstraw; [1]): 0
Bedstraw plant response rating (bedstraw; [2]): 0
Blackgrass plant response rating (blackgrass; [3]): 0
Blackgrass plant response rating (blackgrass; [4]): 0
Plant response rating, Blackgrass (blackgrass; [5]): 0
Plant response rating, Blackgrass (blackgrass; [6]): 0
Blackgrass plant response rating (blackgrass; [7]): 0
Blackgrass plant response rating (blackgrass; [8]): 0
Blackgrass plant response rating (blackgrass; [9]): 0
Blackgrass plant response rating (blackgrass; [10]): 0
B. signalgrass plant response rating (surinam grass; [11]): 0
B. signalgrass plant response rating (surinam grass; [4]): 0
Plant response rating, B. signalgrass (surinam grass; [5]): 0
Plant response rating, B. signalgrass (surinam grass; [6]): 0
B. signalgrass plant response rating (surinam grass; [7]): 0
B. signalgrass plant response rating (surinam grass; Preemergence, Rate 500 g/ha, scale of 0 to 10 where 0 is no effect and 10 is complete control): 0
B. signalgrass plant response rating (surinam grass; [9]): 0
B. signalgrass plant response rating (surinam grass; [10]): 0
Cocklebur plant response rating (cocklebur; [3]): 0
Cocklebur plant response rating (cocklebur; [4]): 0
Plant response rating, Cocklebur (cocklebur; [5]): 0
Plant response rating, Cocklebur (cocklebur; [6]): 0
Cocklebur plant response rating (cocklebur; [12]): 0
Cocklebur plant response rating (cocklebur; [8]): 0
Cocklebur plant response rating (cocklebur; [9]): 0
Cocklebur plant response rating (cocklebur; [10]): 0
Corn plant response rating (corn; [3]): 0
Corn plant response rating (corn; [4]): 0
Plant response rating, Corn (corn; [5]): 0
Plant response rating, Corn (corn; [6]): 0
Corn plant response rating (corn; [12]): 0
Corn plant response rating (corn; [8]): 0
Corn plant response rating (corn; [9]): 0
Corn plant response rating (corn; [10]): 0
Crabgrass plant response rating (crabgrass; [3]): 0
Crabgrass plant response rating (crabgrass; [4]): 0
Plant response rating, Crabgrass (crabgrass; [5]): 0
Plant response rating, Crabgrass (crabgrass; [6]): 0
Crabgrass plant response rating (crabgrass; [12]): 0
Crabgrass plant response rating (crabgrass; [8]): 0
Crabgrass plant response rating (crabgrass; [9]): 0
Crabgrass plant response rating (crabgrass; [10]): 0
Giant foxtail plant response rating (giant foxtail; [3]): 0
Giant foxtail plant response rating (giant foxtail; [4]): 0
Plant response rating, Giant foxtail (giant foxtail; [5]): 0
Plant response rating, Giant foxtail (giant foxtail; [6]): 0
Giant foxtail plant response rating (giant foxtail; [12]): 0
Giant foxtail plant response rating (giant foxtail; [8]): 0
Giant foxtail plant response rating (giant foxtail; [9]): 0
Giant foxtail plant response rating (giant foxtail; [10]): 0
Morningglory plant response rating (morningglory; [3]): 0
Morningglory plant response rating (morningglory; [4]): 1
Plant response rating, Morningglory (morningglory; [5]): 0
Plant response rating, Morningglory (morningglory; [6]): 0
Morningglory plant response rating (morningglory; [12]): 0
Morningglory plant response rating (morningglory; [8]): 0
Morningglory plant response rating (morningglory; [10]): 0
Redroot pigweed plant response rating (pigweed; [3]): 0
Redroot pigweed plant response rating (pigweed; [4]): 0
Plant response rating, Redroot pigweed (pigweed; [5]): 0
Plant response rating, Redroot pigweed (pigweed; [6]): 0
Redroot pigweed plant response rating (pigweed; [12]): 0
Redroot pigweed plant response rating (pigweed; [8]): 0
Redroot pigweed plant response rating (pigweed; [10]): 0
Soybean plant response rating (soybean; [3]): 1
Soybean plant response rating (soybean; [4]): 2
Plant response rating, Soybean (soybean; [5]): 0
Plant response rating, Soybean (soybean; [6]): 0
Soybean plant response rating (soybean; [12]): 0
Soybean plant response rating (soybean; [8]): 0
Soybean plant response rating (soybean; [10]): 0
Sugarbeets plant response rating (sugar beet; [3]): 0
Sugarbeets plant response rating (sugar beet; [4]): 0
Plant response rating, Sugarbeets (sugar beet; [5]): 0
Plant response rating, Sugarbeets (sugar beet; [6]): 0
Sugarbeets plant response rating (sugar beet; [12]): 0
Sugarbeets plant response rating (sugar beet; [8]): 0
Sugarbeets plant response rating (sugar beet; [10]): 0
Wild oats plant response rating (wild oat; [3]): 0
Wild oats plant response rating (wild oat; [4]): 0
Plant response rating, Wild oats (wild oat; [5]): 0
Plant response rating, Wild oats (wild oat; [6]): 0
Wild oats plant response rating (wild oat; [12]): 0
Wild oats plant response rating (wild oat; [8]): 0
Wild oats plant response rating (wild oat; [10]): 0
Nutsedge plant response rating (purple nutsedge; [3]): 0
Nutsedge plant response rating (purple nutsedge; [4]): 0
Plant response rating, Nutsedge (purple nutsedge; [5]): 0
Plant response rating, Nutsedge (purple nutsedge; [6]): 0
Nutsedge plant response rating (purple nutsedge; [12]): 0
Nutsedge plant response rating (purple nutsedge; [8]): 0
Nutsedge plant response rating (purple nutsedge; [10]): 0
Rice plant response rating (rice; [13]): 0
Rice plant response rating (rice; [14]): 0
Rice plant response rating (rice; [15]): 0
S. Flatsedge plant response rating (smallflower flatsedge; [13]): 0
S. Flatsedge plant response rating (smallflower flatsedge; [14]): 0
S. Flatsedge plant response rating (smallflower flatsedge; [15]): 0
Ducksalad plant response rating (duck salad; [13]): 0
Ducksalad plant response rating (duck salad; [14]): 0
Ducksalad plant response rating (duck salad; [16]): 0
Ducksalad plant response rating (duck salad; [15]): 0

CC(C)N(C(=O)n1oc(=O)n(CC#N)c1=O)c1ccccc1 [Compound 434]
Bedstraw plant response rating (bedstraw; [1]): 0
Bedstraw plant response rating (bedstraw; [2]): 0
Blackgrass plant response rating (blackgrass; [3]): 0
Blackgrass plant response rating (blackgrass; [4]): 0
Plant response rating, Blackgrass (blackgrass; [5]): 0
Plant response rating, Blackgrass (blackgrass; [6]): 0
Blackgrass plant response rating (blackgrass; [12]): 0
Blackgrass plant response rating (blackgrass; [8]): 0
Blackgrass plant response rating (blackgrass; [9]): 0
Blackgrass plant response rating (blackgrass; [10]): 0
B. signalgrass plant response rating (surinam grass; [11]): 0
B. signalgrass plant response rating (surinam grass; [4]): 0
Plant response rating, B. signalgrass (surinam grass; [5]): 0
Plant response rating, B. signalgrass (surinam grass; [6]): 0
B. signalgrass plant response rating (surinam grass; [12]): 0
B. signalgrass plant response rating (surinam grass; [8]): 0
B. signalgrass plant response rating (surinam grass; [9]): 0
B. signalgrass plant response rating (surinam grass; [10]): 0
Cocklebur plant response rating (cocklebur; [3]): 0
Cocklebur plant response rating (cocklebur; [4]): 0
Plant response rating, Cocklebur (cocklebur; [5]): 0
Plant response rating, Cocklebur (cocklebur; [6]): 0
Cocklebur plant response rating (cocklebur; [12]): 0
Cocklebur plant response rating (cocklebur; [8]): 0
Cocklebur plant response rating (cocklebur; [9]): 0
Cocklebur plant response rating (cocklebur; [10]): 0
Corn plant response rating (corn; [3]): 0
Corn plant response rating (corn; [4]): 0
Plant response rating, Corn (corn; [5]): 0
Plant response rating, Corn (corn; [6]): 0
Corn plant response rating (corn; [12]): 0
Corn plant response rating (corn; [8]): 0
Corn plant response rating (corn; [9]): 0
Corn plant response rating (corn; [10]): 0
Crabgrass plant response rating (crabgrass; [3]): 1
Crabgrass plant response rating (crabgrass; [4]): 4
Plant response rating, Crabgrass (crabgrass; [5]): 0
Plant response rating, Crabgrass (crabgrass; [6]): 0
Crabgrass plant response rating (crabgrass; [12]): 0
Crabgrass plant response rating (crabgrass; [8]): 1
Crabgrass plant response rating (crabgrass; [9]): 0
Crabgrass plant response rating (crabgrass; [10]): 0
Giant foxtail plant response rating (giant foxtail; [3]): 1
Giant foxtail plant response rating (giant foxtail; [4]): 4
Plant response rating, Giant foxtail (giant foxtail; [5]): 0
Plant response rating, Giant foxtail (giant foxtail; [6]): 0
Giant foxtail plant response rating (giant foxtail; [12]): 0
Giant foxtail plant response rating (giant foxtail; [8]): 2
Giant foxtail plant response rating (giant foxtail; [9]): 0
Giant foxtail plant response rating (giant foxtail; [10]): 0
Morningglory plant response rating (morningglory; [3]): 1
Morningglory plant response rating (morningglory; [4]): 1
Plant response rating, Morningglory (morningglory; [5]): 0
Plant response rating, Morningglory (morningglory; [6]): 0
Morningglory plant response rating (morningglory; [12]): 0
Morningglory plant response rating (morningglory; [8]): 0
Morningglory plant response rating (morningglory; [10]): 0
Redroot pigweed plant response rating (pigweed; [3]): 0
Redroot pigweed plant response rating (pigweed; [4]): 0
Plant response rating, Redroot pigweed (pigweed; [5]): 0
Plant response rating, Redroot pigweed (pigweed; [6]): 0
Redroot pigweed plant response rating (pigweed; [12]): 0
Redroot pigweed plant response rating (pigweed; [8]): 4
Redroot pigweed plant response rating (pigweed; [10]): 0
Soybean plant response rating (soybean; [3]): 1
Soybean plant response rating (soybean; [4]): 1
Plant response rating, Soybean (soybean; [5]): 0
Plant response rating, Soybean (soybean; [6]): 0
Soybean plant response rating (soybean; [12]): 0
Soybean plant response rating (soybean; [8]): 0
Soybean plant response rating (soybean; [10]): 0
Sugarbeets plant response rating (sugar beet; [3]): 0
Sugarbeets plant response rating (sugar beet; [4]): 0
Plant response rating, Sugarbeets (sugar beet; [5]): 0
Plant response rating, Sugarbeets (sugar beet; [6]): 0
Sugarbeets plant response rating (sugar beet; [12]): 0
Sugarbeets plant response rating (sugar beet; [8]): 0
Sugarbeets plant response rating (sugar beet; [10]): 0
Wild oats plant response rating (wild oat; [3]): 0
Wild oats plant response rating (wild oat; [4]): 0
Plant response rating, Wild oats (wild oat; [5]): 0
Plant response rating, Wild oats (wild oat; [6]): 0
Wild oats plant response rating (wild oat; [12]): 0
Wild oats plant response rating (wild oat; [8]): 0
Wild oats plant response rating (wild oat; [10]): 0
Nutsedge plant response rating (purple nutsedge; [3]): 0
Nutsedge plant response rating (purple nutsedge; [4]): 0
Plant response rating, Nutsedge (purple nutsedge; [5]): 0
Plant response rating, Nutsedge (purple nutsedge; [6]): 0
Nutsedge plant response rating (purple nutsedge; [12]): 0
Nutsedge plant response rating (purple nutsedge; [8]): 0
Nutsedge plant response rating (purple nutsedge; [10]): 0
Rice plant response rating (rice; [13]): 0
Rice plant response rating (rice; [14]): 0
Rice plant response rating (rice; [15]): 0
S. Flatsedge plant response rating (smallflower flatsedge; [13]): 0
S. Flatsedge plant response rating (smallflower flatsedge; [14]): 0
S. Flatsedge plant response rating (smallflower flatsedge; [15]): 0
Ducksalad plant response rating (duck salad; [13]): 0
Ducksalad plant response rating (duck salad; [14]): 0
Ducksalad plant response rating (duck salad; [16]): 0
Ducksalad plant response rating (duck salad; [15]): 0

— US6737383B1, “Herbicidal oxadiazolidines” (priority 1999, dated 2004)
